Paper PMC10065799, “High-throughput profiling of sequence recognition by tyrosine kinases and SH2 domains using bacterial peptide display” (eLife, 2023)

Assays:
[1] = molecular target: c-Src kinase domain (Homo sapiens, UniProt P12931); assay: pTyr-Var library bacterial peptide display kinase screen (enrichment scores); format: biochemical
[2] = tested on: Fyn kinase domain; assay: as above; format: biochemical, human
[3] = tested on: Hck kinase domain; assay: as above; format: biochemical, human
[4] = molecular target: T1, c-Abl kinase domain (Mus musculus, UniProt P00520); assay: as above; format: biochemical
T1 sequence (P00520 242-493 limits assumed): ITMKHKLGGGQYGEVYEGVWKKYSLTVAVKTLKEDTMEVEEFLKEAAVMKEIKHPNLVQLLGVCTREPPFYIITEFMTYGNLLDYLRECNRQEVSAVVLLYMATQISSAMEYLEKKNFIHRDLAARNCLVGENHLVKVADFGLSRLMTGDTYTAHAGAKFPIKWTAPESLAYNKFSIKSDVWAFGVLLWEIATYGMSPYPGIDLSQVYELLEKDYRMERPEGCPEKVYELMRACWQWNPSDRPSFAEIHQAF

[5] = tested on: Jak2; assay: as above; format: biochemical, human
[6] = tested on: AncSZ kinase domain; assay: as above; format: biochemical
[7] = tested on: Fer kinase domain; assay: as above; format: biochemical, mouse
[8] = tested on: Fes; assay: as above; format: biochemical; conditions: mean of log2 of enrichment over R1-R6
[9] = tested on: FGFR1 kinase domain; assay: as above; format: biochemical, human
[10] = tested on: FGFR3 kinase domain; assay: as above; format: biochemical, human
[11] = tested on: EPHB1 kinase domain; assay: as above; format: biochemical, human
[12] = tested on: EPHB2 kinase domain; assay: as above; format: biochemical, human
[13] = tested on: MERTK kinase domain; assay: as above; format: biochemical, human
[14] = tested on: 4G10 Platinum pan-phosphotyrosine antibody; assay: Phosphorylated pTyr-Var library selection with biotinylated pan-phosphotyrosine antibody; format: binding, mouse; conditions: enrichment score, sheet SH2-vs-peptide
[15] = molecular target: c-Src SH2 domain (Homo sapiens, UniProt P12931); assay: pTyr-Var library SH2 domain screen with SH2-dynabeads (enrichment scores)
[16] = tested on: SHP2 C-SH2 domain; assay: as above
[17] = tested on: Grb2 SH2 domain; assay: as above
[18] = molecular target: T1, c-Abl kinase domain; assay: ADP-Quest continuous fluorimetric kinase assay (Michaelis-Menten parameters and initial rates); format: biochemical; conditions: peptide 100 μM, kinase 10–50 nM; Figure 2C
[19] = tested on: EPHB2 kinase domain; assay: ADP-Quest continuous fluorimetric kinase assay (initial rates of consensus peptides); format: biochemical, human; conditions: peptide 100 μM, kinase 10–50 nM; Figure 2C
Description: A fluorescence-based assay from Eurofins (ADP Quest) was used to measure the Michaelis-Menten kinetic parameters for phosphorylation of the consensus peptides by purified tyrosine kinase domains. In this assay, ADP production as a result of kinase activity is coupled to the production of resorufin, a fluorophore that emits signal at 590 nm. For all experiments, the assay reactions were set up as described in the provided assay kit protocol, in a 384 well plate format. The peptide solutions were serially diluted in 100 mM Tris, pH 8.0, and the kinases were diluted to 50 nM in buffer (10 mM HEPES, 100 mM NaCl, 1 mM TCEP, 5 mM MgCl2, 10% (v/v) glycerol). The final reaction mixtures contained 10 nM of kinase with 100 μM of ATP. […] Phosphorylation reaction progress was monitored by measuring fluorescence at excitation 530 nm and emission 590 nm every 2 min at 37 °C on a plate reader (BioTek Synergy Neo 2). The fluorescence units (RFU) were converted to μM ADP by comparison to a standard curve, and the initial rates were extracted from the linear regime of the reaction progress curves. Initial rates were also measured for samples containing each kinase but lacking a peptide substrate, to account for background ATP hydrolysis. This background rate was subtracted from the rates measured in the presence of peptide. […]

[20] = mean of log2 of enrichment over R1-R4
[21] = pTyr-Var library, enrichment score, replicate 1
[22] = pTyr-Var library, enrichment score, replicate 3
[23] = pTyr-Var library, enrichment score, replicate 4
[24] = mean of log2 enrichment of reference peptide, n = 5
[25] = pTyr-Var library, reference peptide enrichment, mean of n = 5
[26] = mean of log2 enrichment of reference peptide, n = 4
[27] = pTyr-Var library, reference peptide enrichment, mean of n = 4

ATVLNYLPKCI [A2M_Y817]
c-Src mean of log2(enrichment) [1, 20]: -1.394 | c-Src enrich. R1 [1, 21]: 0.4801 | c-Src enrich. R3 [1, 22]: 0.3246 | c-Src enrich. R4 [1, 23]: 0.3798 | Fyn mean of log2(enrichment) [2, 20]: -1.219 | Fyn enrich. R1 [2, 21]: 0.5501 | Fyn enrich. R3 [2, 22]: 0.3301 | Fyn enrich. R4 [2, 23]: 0.4584 | Hck mean of log2(enrichment) ([3]; mean of log2(variant) / mean of log2(reference), R1-R4): 0.599 | Hck enrich. R1 [3, 21]: 0.4967 | Hck enrich. R3 [3, 22]: 0.9831 | Hck enrich. R4 [3, 23]: 0.3063 | c-Abl mean of log2(enrichment) [4, 20]: -0.5355 | c-Abl enrich. R1 [4, 21]: 0.4542 | c-Abl enrich. R3 [4, 22]: 0.6528 | c-Abl enrich. R4 [4, 23]: 0.8371 | Jak2 mean of log2(enrichment) ([5]; mean of log2 of enrichment over R1-R3): -0.2312 | Jak2 enrich. R1 [5, 21]: 0.7671 | Jak2 enrich. R3 [5, 22]: 0.8013 | AncSZ mean of log2(enrichment) ([6]; mean of log2 of enrichment over R1-R5): -0.4662 | AncSZ enrich. R1 [6, 21]: 0.5771 | AncSZ enrich. R3 [6, 22]: 0.5974 | AncSZ enrich. R4 [6, 23]: 1.037 | AncSZ enrich. R5 ([6]; pTyr-Var library, enrichment score, replicate 5): 0.9242 | Fer mean of log2(enrichment) [7, 20]: -1.275 | Fer enrich. R1 [7, 21]: 0.6179 | Fer enrich. R3 [7, 22]: 0.5252 | Fer enrich. R4 [7, 23]: 0.2478 | Fes mean of log2(enrichment) [8]: -0.04028 | mean of log2(reference) [9, 24]: -0.9981 | ref. mean [9, 25]: 0.5192 | mean of log2(reference) [10, 24]: -0.6609 | ref. mean [10, 25]: 0.649 | mean of log2(reference) [11, 26]: -0.6057 | ref. mean [11, 27]: 0.6623 | mean of log2(reference) [12, 26]: -0.8971 | ref. mean [12, 27]: 0.5418 | mean of log2(reference) [13, 26]: -1.427 | ref. mean [13, 27]: 0.3924 | 4G10 (mean) [14]: 0.6373 | c-Src (mean) ([15]; enrichment score, phosphorylated pTyr-Var library, sheet SH2-vs-peptide, mean): 0.535 | mean of log2(reference) ([15]; mean of log2 enrichment of reference peptide, R1-R3, sheet c-Src): -0.9781 | ref. mean ([15]; reference peptide, mean of R1-R3, sheet c-Src): 0.535 | mean of log2(reference) ([16]; SHP2-C SH2, mean of log2 enrichment of reference, R1-R3): -0.4562 | ref. mean ([16]; reference peptide enrichment score, SHP2-C SH2, mean of R1-R3): 0.736 | mean of log2(reference) ([17]; Grb2 SH2, mean of log2 enrichment of reference, R1-R3): -0.1568 | ref. mean ([17]; reference peptide enrichment score, Grb2 SH2, mean of R1-R3): 0.8993

Ac-GPPEPIYEVPPPKKKG-NH2 [EPHB2 Consensus, EPHB2 consensus substrate peptide from X5-Y-X5 screen]
phosphorylation of consensus peptide by c-Abl (initial rate relative to cognate consensus) [18]: efficiently phosphorylated | phosphorylation of consensus peptide by EPHB2 (initial rate relative to cognate consensus) [19]: efficiently phosphorylated
